The values below come from paper PMC4926213, “Synthetic small molecule GLP-1 secretagogues prepared by means of a three-component indole annulation strategy” (Scientific Reports, 2016).

Format in all cases: cell-based
The target in test [1] is T1, TRPA1 (Rattus norvegicus, UniProt Q6RI86).
T1 construct: wild-type rat TRPA1 (GenBank AY496961.1), 5' fused to YFP
The experiment in a line: fura-2 Ca2+ assay in HEK-293 cells transfected with rat TRPA1 versus empty vector; loss of response in C622S.

In test [2] the target is T2, TRPA1 (Mus musculus, UniProt Q8BLA8).
T2 construct: endogenous channel in mouse STC-1 cells
The experiment in a line: fura-2 Ca2+ assay and whole-cell patch clamp in STC-1 cells; blocked by A967079 and HC030031. A general note: In patch-clamp work, channel activity is measured electrically.

Test [3] has as its target T3, TRPA1 (Rattus norvegicus, UniProt Q6RI86, C622S).
T3 construct: mutant rat C622S TRPA1
Nature of the test: fura-2 Ca2+ assay in HEK-293 cells transfected with C622S rat TRPA1.

The structures appear in SMILES notation.

T3 sequence (Q6RI86 whole entry C622S): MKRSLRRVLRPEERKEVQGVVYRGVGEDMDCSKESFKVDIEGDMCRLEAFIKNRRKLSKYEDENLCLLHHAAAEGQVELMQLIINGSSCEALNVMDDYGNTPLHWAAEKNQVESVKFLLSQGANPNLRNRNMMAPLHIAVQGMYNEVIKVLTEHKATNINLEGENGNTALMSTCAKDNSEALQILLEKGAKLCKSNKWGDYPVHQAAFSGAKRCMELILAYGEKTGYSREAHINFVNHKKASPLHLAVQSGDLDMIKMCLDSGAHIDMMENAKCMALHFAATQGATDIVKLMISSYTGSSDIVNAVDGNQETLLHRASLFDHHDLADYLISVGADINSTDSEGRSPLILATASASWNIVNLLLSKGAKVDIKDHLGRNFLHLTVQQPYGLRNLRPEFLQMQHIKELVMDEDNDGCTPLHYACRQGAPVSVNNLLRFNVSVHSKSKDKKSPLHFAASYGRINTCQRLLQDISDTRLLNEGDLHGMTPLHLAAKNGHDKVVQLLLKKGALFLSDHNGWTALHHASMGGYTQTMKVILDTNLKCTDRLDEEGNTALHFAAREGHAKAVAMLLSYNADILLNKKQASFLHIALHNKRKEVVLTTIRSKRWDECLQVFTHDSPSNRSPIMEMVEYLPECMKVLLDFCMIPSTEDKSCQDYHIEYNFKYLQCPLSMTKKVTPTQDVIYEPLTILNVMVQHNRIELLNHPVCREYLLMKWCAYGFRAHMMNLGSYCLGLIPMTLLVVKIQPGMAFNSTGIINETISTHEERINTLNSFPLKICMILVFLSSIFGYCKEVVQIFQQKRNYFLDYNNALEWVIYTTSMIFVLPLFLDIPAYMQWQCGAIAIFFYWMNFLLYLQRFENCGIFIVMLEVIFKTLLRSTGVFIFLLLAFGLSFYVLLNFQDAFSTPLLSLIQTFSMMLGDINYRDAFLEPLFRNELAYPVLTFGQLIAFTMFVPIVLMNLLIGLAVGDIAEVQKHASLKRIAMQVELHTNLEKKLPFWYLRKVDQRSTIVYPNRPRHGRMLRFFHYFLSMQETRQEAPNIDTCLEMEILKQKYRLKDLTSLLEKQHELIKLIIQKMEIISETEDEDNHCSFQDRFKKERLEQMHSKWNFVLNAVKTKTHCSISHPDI
T2 sequence (Q8BLA8 whole entry): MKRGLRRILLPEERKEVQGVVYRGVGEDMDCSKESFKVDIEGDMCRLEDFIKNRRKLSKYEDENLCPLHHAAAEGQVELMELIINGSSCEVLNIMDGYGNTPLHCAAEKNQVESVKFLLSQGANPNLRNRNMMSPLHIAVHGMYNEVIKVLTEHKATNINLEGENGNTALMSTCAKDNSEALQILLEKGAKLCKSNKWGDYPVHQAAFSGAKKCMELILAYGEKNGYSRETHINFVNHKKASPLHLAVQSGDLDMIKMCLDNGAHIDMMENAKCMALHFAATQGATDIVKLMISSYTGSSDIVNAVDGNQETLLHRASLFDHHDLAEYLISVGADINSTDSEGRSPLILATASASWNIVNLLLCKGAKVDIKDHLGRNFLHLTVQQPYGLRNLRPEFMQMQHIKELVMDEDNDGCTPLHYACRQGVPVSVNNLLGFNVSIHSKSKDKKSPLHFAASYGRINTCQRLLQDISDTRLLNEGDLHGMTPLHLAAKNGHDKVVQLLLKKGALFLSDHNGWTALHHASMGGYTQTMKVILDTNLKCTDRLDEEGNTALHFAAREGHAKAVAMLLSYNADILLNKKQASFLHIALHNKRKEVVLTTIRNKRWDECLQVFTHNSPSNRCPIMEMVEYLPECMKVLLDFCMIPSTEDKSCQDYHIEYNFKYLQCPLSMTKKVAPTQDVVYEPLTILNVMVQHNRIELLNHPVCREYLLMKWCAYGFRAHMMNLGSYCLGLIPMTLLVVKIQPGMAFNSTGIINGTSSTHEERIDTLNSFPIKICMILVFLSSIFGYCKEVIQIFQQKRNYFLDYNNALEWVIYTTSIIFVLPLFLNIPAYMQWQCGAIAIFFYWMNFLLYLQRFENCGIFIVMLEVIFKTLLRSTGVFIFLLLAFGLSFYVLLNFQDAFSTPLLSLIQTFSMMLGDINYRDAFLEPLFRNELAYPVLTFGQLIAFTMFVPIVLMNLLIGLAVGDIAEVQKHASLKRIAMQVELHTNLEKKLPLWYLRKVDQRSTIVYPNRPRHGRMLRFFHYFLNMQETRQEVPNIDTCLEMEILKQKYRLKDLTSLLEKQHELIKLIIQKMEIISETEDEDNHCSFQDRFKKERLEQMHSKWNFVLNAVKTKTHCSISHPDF
T1 sequence (Q6RI86 whole entry, the tested form may be a part): as the sequence (Q6RI86 whole entry C622S) above, with S622C counted along it

For the molecule `C=CCN=C=S` [AITC, allyl isothiocyanate], at TRPA1 [1], the “fura-2 Ca2+ assay in HEK-293 cells transfected with rat TRPA1 versus empty vecto” value is listed as “the electrophile AITC must covalently modify C622 in order to fully activate the channel”.

One may read the EC50 as the concentration needed to bring the measured effect to its halfway point. Low readings indicate higher potency in that assay, high ones lower potency in that assay. On to `CC1(C)c2c([nH]c3ccc(Cl)cc23)C2C=CC1C2` (racemic) [JWU-A021], for which the EC50 on TRPA1 [2] was ~200 nM. Further, the “fura-2 Ca2+ assay in HEK-293 cells transfected with C622S rat TRPA1” value at TRPA1 [3] is recorded as “mutant C622S rat TRPA1 cDNA responded to JWU-A021 in a manner nearly identical to that of cells transfected with WT”.
